Experimental findings from patent publication US6495376B1, “Methods and compositions for regulating protein-protein interactions” (Beth Israel Deaconess Medical Center, priority 1999, dated 2002) are described below.

The test system of assay [1] is MPM-2 antigens (mitotic phosphoproteins) of mitotic HeLa cell extracts. The assay can be described thus: GST pulldown from mitotic HeLa cell extracts, MPM-2 immunoblotting (phosphoprotein-binding activity). The following applies: for Phosphoprotein binding activity: GST-fusion proteins with mitotic extracts, MPM2 antibody; for binding to mitotic phosphoproteins / MPM-2 antigens (in words): mitotic HeLa cell extracts; for effect of phosphorylation by PKA on interaction with MPM2 antigens: protein phosphorylated by PKA before binding. How it is done: GST-fusion proteins containing the WW-domain, PPIase-domain or the entire Pin 1 protein were prepared and incubated with interphase (G1/S arrested; Control) or dividing (M phase) HeLa cell extracts using well-known procedures (Lu, K. P., et al., Nature 380:544 (1996); (Shen, M., et al., Genes & Devl. 12:706 (1998)). Briefly, HeLa cells were arrested at the G1/S boundary or mitosis by incubation with thymidine and aphidicolin or nocodazole for 16 h, respectively. The cells were lysed and supernatants incubated with 10 μl of agarose beads containing GST-Pin1; GST-WW-domain of Pin1; GST-PPIase domain of Pin1; or control GST for 2 h at 4° C. The phosphorylated precipitated proteins were washed 5 times in buffer containing 1% Triton X-100 before subjecting to immunoblotting analysis using MPM-2 antibody, as described previously (Yaffe, M. B. et al., Science 278:1957 (1997); Schukowski, et al., Biochemistry 37:5566 (1998); Shen, M. et al., Genes & Dev 12:706 (1998)). MPM-2 recognizes a subset of mitotic phosphoproteins including Pin1-binding proteins such as cdc25.
(§1) Pintide and its nonphosphorylated counterpart were synthesized and incubated with GST-Pin1 or the GST-WW-domain of Pin1 in a binding buffer, using established procedures (Shen, M. et al., Genes & Dev 12:706 (1998)). After a 1 hr incubation, mitotic HeLa cell extracts were added and subjected to GST pull down experiments, followed by immunoblotting analysis using the MPM-2 antibody. To obtain semi-quantitative data, films of immunoblots were scanned at the region of 55 kDa, the major Pin1-binding protein, and data analyzed using ImageQuan (ScanJet II CX). The peptide binding constants were measured using a fluorescence polarization assay (Jiskoot, W. et al., Anal Biochem 196:421 (1991)). Peptides were fluorescein labeled at the N-terminus using the Fluorescein Amine Labeling Kit (Pan Vera Corp.) and purified by TLC according to the manufacturer's […]. To prevent nonspecific labeling, a Pintide analogue (WFYpSPFLE) SEQ ID NO: 8 and the nonphosphorylated control were used. Various concentrations of Pin1 and its mutant proteins were incubated with 0.1 μM of the labeled peptides in a binding buffer containing 50 mM HEPES, pH 7.4, 100 mM NaCl, 2% glycerol. Fluorescence polarization values were obtained using a Pan Vera Beacon 2000 system, as described by the manufacturer.
To examine the effect of Pin1 phosphorylation on Pin1 binding to ligands, Pin1 and Pin1 mutant proteins were incubated with the catalytic subunit of PKA and PKC (a mixture of α, β and γ, UBI) in a kinase reaction buffer containing 500 μM cold ATP at 30° C. for 15 min (Lu, K. P. et al., Anal. Biochem. 196:421 (1991)). The reactions were stopped by adding SDS sample buffer and reaction products separated on SDS-gels, followed by autoradiography. Pin1 proteins were isolated and used to bind MPM-2 antigens from mitotic extracts from HeLa cells, as previously described (Shen, M., et al., Genes & Dev 12:706 (1998)). Experiments were also performed with PKA and PKC, casein kinase, cyclin B/Cdc2 and SRPK1 kinases.
A general note: A western blot detects proteins with antibodies after separation by electrophoresis.

The next assay addresses WFYSPFLE
Nature of the assay: Fluorescence anisotropy binding to fluorescein-labeled nonphosphorylated control peptide. The settings on record: for WFYSPFLE Kd: nonphosphorylated peptide. In general terms: Polarisation of emitted light reports the rotation of a fluorescent probe.

Another assay addresses WFYpSPFLE (Pintide). Nature of the assay: Fluorescence anisotropy (polarization) binding to fluorescein-labeled phosphorylated Pintide analogue. The settings on record: for binding to Pintide (in words): fluorescence anisotropy.
Description: To determine the affinity of Pin1, and its WW or PPIase domain for phosphopeptides, peptides were labeled with fluorescein and their interactions with Pin1 measured using quantitative fluorescence anisotrophy. To prevent nonspecific labeling, a Pintide analogue (WFYpSPFLE) SEQ ID NO: 9 was used, which binds Pin1 with a high affinity based on the peptide library screen as described by (Lu, K. P. et al., U.S. Ser. No. 60/058,164 (1997), the teachings of which are incorporated herein in their entirety.
as §1

Setting [2] is: high affinity binding site, read-out: WFYpSPFLE Kd(μM) High affinity.

Values joined by “and” are separate entries in the source; they are usually repeats but may differ in a detail not shown here. Equal values may be shown once. “Also recorded” adds a separate entry of the source. Read-outs that look alike come from different tables or passages of the source.

Usually Kd stands for the constant that tells how readily two partners part at equilibrium. For the substance “Pin1 WW-domain: N-terminal WW-domain (amino acids 1-54) of Pin1 (MADEEKLPPGWEKRMSRSSGRVYYFNHITNASQWERPSGNSSSGGKNGQGEPAR; left off: a dimerising Fc or GST)”, in assay [1], the Phosphoprotein binding activity result is recorded as “+ (binding was detected)”, the “binding to mitotic phosphoproteins / MPM-2 antigens (in words)” value was “strong binding” and the “effect of phosphorylation by PKA on interaction with MPM2 antigens” value is “completely abolished”. At WFYSPFLE (GST-WW-domains, N.B., not binding detected), the “Kd (μM) Pintide nonphosphorylated WFYSPFLE” value is on record as “N.B”. Also, the “WFYSPFLE Kd” value on WFYSPFLE was “No binding was detected; also recorded: Not binding”. Further, the dissociation constant Kd at WFYpSPFLE (Pintide) (GST-WW-domains, fluorescein-labeled peptide, average of three independent experiments, read-out: Kd (μM) Pintide WFYpSPFLE) came to 1 µM. Also, the “binding to Pintide (in words)” value in the assay on WFYpSPFLE (Pintide) is reported as “bound Pintide”. Also, the dissociation constant (Kd) at WFYpSPFLE (Pintide) (setting [2]) was 1.2 µM and 1 µM.
With “Pin1: wild-type human prolyl isomerase (PPIase) Pin1 with N-terminal WW-domain; tag cleaved in Table 2”, in assay [1], the Phosphoprotein binding activity entry is “+ (binding was detected)”, the “binding to mitotic phosphoproteins / MPM-2 antigens (in words)” value is listed as “strong binding” and the “effect of phosphorylation by PKA on interaction with MPM2 antigens” value is “completely abolished”. Besides, the “WFYSPFLE Kd” value on WFYSPFLE was “No binding was detected; also recorded: Not binding”. In addition, the “binding to Pintide (in words)” value in the assay with WFYpSPFLE (Pintide) is listed as “bound Pintide”. Also, the Kd at WFYpSPFLE (Pintide) (setting [2]) worked out at 1.2 µM. Besides, on WFYpSPFLE (Pintide) (low affinity binding site, read-out: WFYpSPFLE Kd(μM) Low affinity), the Kd is 11 µM.
